In patent US20220402950A1, “SUBSTITUTED BENZIMIDAZOLES AS PAD4 INHIBITORS” (BRISTOL-MYERS SQUIBB COMPANY, priority 2018, published 2022):

Molecular target: human PAD4 (hPAD4) (Homo sapiens, UniProt Q9UM07)
Test: RFMS Human PAD4 Functional Assay
Assay type: biochemical
Conditions: hPAD4 RFMS IC50, human PAD4, rapid-fire mass spectrum (RFMS) assay; 5 nM hPAD4, 250 μM BAEE
Outline: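 RapidFire ESI-MS quantification, normalised to a modified-citrulline internal standard, after phenyl glyoxal (final 4 mM) derivatisation of the TCA-quenched reaction. The enzyme (10 nM) sat 30 min with compound (up to 50 μM final) before 500 μM BAEE (as added) started a 90 min, 37 °C reaction. Buffer: HEPES pH 7.5, 50 μM calcium, 5 μM TPEN.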

Chain of human PAD4 (hPAD4) (Q9UM07 whole entry): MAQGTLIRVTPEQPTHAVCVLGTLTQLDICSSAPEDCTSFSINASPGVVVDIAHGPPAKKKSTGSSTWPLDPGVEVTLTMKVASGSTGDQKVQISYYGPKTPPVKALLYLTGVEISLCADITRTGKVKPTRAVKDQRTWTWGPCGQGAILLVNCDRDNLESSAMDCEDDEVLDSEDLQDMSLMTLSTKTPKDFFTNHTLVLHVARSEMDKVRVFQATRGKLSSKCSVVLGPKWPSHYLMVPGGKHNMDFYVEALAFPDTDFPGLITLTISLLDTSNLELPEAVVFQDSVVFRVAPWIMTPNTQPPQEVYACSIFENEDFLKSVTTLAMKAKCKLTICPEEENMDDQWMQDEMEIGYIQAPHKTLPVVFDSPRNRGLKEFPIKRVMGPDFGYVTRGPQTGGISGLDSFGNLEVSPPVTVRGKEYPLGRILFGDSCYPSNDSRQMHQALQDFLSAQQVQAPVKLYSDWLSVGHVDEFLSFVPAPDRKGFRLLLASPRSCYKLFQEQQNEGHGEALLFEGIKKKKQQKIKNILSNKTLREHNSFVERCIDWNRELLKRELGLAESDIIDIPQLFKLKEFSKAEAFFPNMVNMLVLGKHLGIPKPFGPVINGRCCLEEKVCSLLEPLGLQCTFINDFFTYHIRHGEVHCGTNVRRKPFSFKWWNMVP

`COc1cc(C(=O)N2CC3CCC2[C@@H]3N)cc2nc(-c3cc4cccc(-c5ccc(NC(C)=O)cc5)c4n3CC3CC3)n(C)c12` (stereo partly drawn) [Example 133, N-(4-(2-(5-((7R)-7-amino-2-azabicyclo[2.2.1]heptane-2-carbonyl)-7-methoxy-1-methyl-1H-benzo[d]imidazol-2-yl)-1-(cyclopropylmethyl)-1H-indol-7-yl)phenyl)acetamide] and `COc1cc(C(=O)N2C[C@H]3CC[C@@H]2[C@@H]3N)cc2nc(-c3cc4cccc(-c5ccc(O)nc5)c4n3CC3CC3)n(C)c12` [Example 197, ((1R,4R,7R)-7-amino-2-azabicyclo[2.2.1]heptan-2-yl)(2-(1-(cyclopropylmethyl)-7-(6-hydroxypyridin-3-yl)-1H-indol-2-yl)-7-methoxy-1-methyl-1H-benzo[d]imidazol-5-yl)methanone] are within 1.5-fold of each other in IC50: 0.121 µM for the first, 0.12 µM for the second.

First: COc1cc(C(=O)N2C[C@H]3CC[C@@H]2[C@@H]3N)cc2nc(-c3cc4cccc(C5CCN(C(=O)CC#N)CC5)c4n3CC3CC3)n(C)c12 [Example 231, 3-(4-(2-(5-((1R,4R,7R)-7-amino-2-azabicyclo[2.2.1]heptane-2-carbonyl)-7-methoxy-1-methyl-1H-benzo[d]imidazol-2-yl)-1-(cyclopropylmethyl)-1H-indol-7-yl)piperidin-1-yl)-3-oxopropanenitrile]
Second: COc1cc(C(=O)N2C[C@H]3CC[C@@H]2[C@@H]3N)cc2nc(-c3cc4cccc(C5CN(C(=O)CC#N)C5)c4n3CC3CC3)n(C)c12 [Example 77, 3-[3-(2-{5-[(1R,4R,7R)-7-amino-2-azabicyclo[2.2.1]heptane-2-carbonyl]-7-methoxy-1-methyl-1H-1,3-benzodiazol-2-yl}-1-(cyclopropylmethyl)-1H-indol-7-yl)azetidin-1-yl]-3-oxopropanenitrile]
The IC50 of the first is 1.7-fold higher: 0.066 µM for the first, 0.038 µM for the second.

Going from `COc1cc(C(=O)N2C[C@H]3CC[C@@H]2[C@@H]3N)cc2nc(-c3cc4cccc(C5CC(C(=O)N6CCC6)C5)c4n3CC3CC3)n(C)c12` (single isomer, unassigned; isomer 1) [Example 202] to `COc1cc(C(=O)N2C[C@H]3CC[C@@H]2[C@@H]3N)cc2nc(-c3cc4cccc(C5CCN(C(=O)C6CC6)CC5)c4n3CC3CC3)n(C)c12` [Example 225, (4-(2-(5-((1R,4R,7R)-7-amino-2-azabicyclo[2.2.1]heptane-2-carbonyl)-7-methoxy-1-methyl-1H-benzo[d]imidazol-2-yl)-1-(cyclopropylmethyl)-1H-indol-7-yl)piperidin-1-yl)(cyclopropyl)metha-none], the IC50 rises from 0.024 µM to 0.112 µM (4.7-fold).

Going from `COc1cc(C(=O)N2C[C@H]3CC[C@@H]2[C@@H]3N)cc2nc(-c3cc4cccc(Nc5c(C)nn(C)c5C)c4n3CC3CC3)n(C)c12` [Example 174, ((1R,4R,7R)-7-amino-2-azabicyclo[2.2.1]heptan-2-yl)(2-(1-(cyclopropylmethyl)-7-((1,3,5-trimethyl-1H-pyrazol-4-yl)amino)-1H-indol-2-yl)-7-methoxy-1-methyl-1H-benzo[d]imidazol-5-yl)methanone] to `COc1cc(C(=O)N2C[C@H]3CC[C@@H]2[C@@H]3N)cc2nc(-c3cc4cccc(-c5cnn(CCO)c5)c4n3CC3CC3)n(C)c12` [Example 141, ((R,4R,7R)-7-amino-2-azabicyclo[2.2.1]heptan-2-yl)(2-(1-(cyclopropylmethyl)-7-(1-(2-hydroxyethyl)-1H-pyrazol-4-yl)-1H-indol-2-yl)-7-methoxy-1-methyl-1H-benzo[d]imidazol-5-yl)methanone], the IC50 rises from 0.041 µM to 0.101 µM (2.5-fold).

Going from `CCNC(=O)N1CCC(c2cccc3cc(-c4nc5cc(C(=O)N6C[C@H]7CC[C@@H]6[C@@H]7N)cc(OC)c5n4C)n(CC4CC4)c23)CC1` [Example 250, 4-(2-(5-((1R,4R,7R)-7-amino-2-azabicyclo[2.2.1]heptane-2-carbonyl)-7-methoxy-1-methyl-1H-benzo[d]imidazol-2-yl)-1-(cyclopropylmethyl)-1H-indol-7-yl)-N-ethylpiperidine-1-carboxamide] to `COc1cc(C(=O)N2C[C@H]3CC[C@@H]2[C@@H]3N)cc2nc(-c3cc4cccc(C5CC(C(N)=O)C5)c4n3CC3CC3)n(C)c12` (single isomer, unassigned) [Example 46], the IC50 rises from 0.008 µM to 0.013 µM (1.6-fold). The first is the more potent here.

`COc1cc(C(=O)N2C[C@H]3CC[C@@H]2[C@@H]3N)cc2nc(-c3cc4cccc(CCCN)c4n3CC3CC3)n(C)c12` [Example 11, (1R,4R,7R)-2-{2-[7-(3-aminopropyl)-1-(cyclopropylmethyl)-1H-indol-2-yl]-7-methoxy-1-methyl-1H-1,3-benzodiazole-5-carbonyl}-2-azabicyclo[2.2.1]heptan-7-amine] and `COc1cc(C(=O)N2C[C@H]3CC[C@@H]2[C@@H]3N)cc2nc(-c3cc4cccc(CCCCCN)c4n3CC3CC3)n(C)c12` [Example 16, (1R,4R,7R)-2-{2-[7-(5-aminopentyl)-1-(cyclopropylmethyl)-1H-indol-2-yl]-7-methoxy-1-methyl-1H-1,3-benzodiazole-5-carbonyl}-2-azabicyclo[2.2.1]heptan-7-amine] are within 1.5-fold of each other in IC50: 0.048 µM for the first, 0.039 µM for the second.

`COc1cc(C(=O)N2C[C@H](N)C[C@@H](F)C2)cc2nc(-c3cc4cccc(C5CCN(C(C)=O)CC5)c4n3CC3CC3)n(C)c12` [Example 227, 1-(4-(2-(5-((3R,5R)-3-amino-5-fluoropiperidine-1-carbonyl)-7-methoxy-1-methyl-1H-benzo[d]imidazol-2-yl)-1-(cyclopropylmethyl)-1H-indol-7-yl)piperidin-1-yl)ethan-1-one] and `COc1cc(C(=O)N2C[C@H](N)C[C@@H](F)C2)cc2nc(-c3cc4cccc(C5CC(C(N)=O)C5)c4n3CC3CC3)n(C)c12` (single isomer, unassigned) [Example 113] are within 1.5-fold of each other in IC50: 0.077 µM for the first, 0.052 µM for the second.

Compared with `COc1cc(C(=O)N2C[C@H]3CC[C@@H]2[C@@H]3N)cc2nc(-c3cc4cccc(C5CN(C(=O)c6ccccc6)C5)c4n3CC3CC3)n(C)c12` [Example 74, (1R,4R,7R)-2-{2-[7-(1-benzoylazetidin-3-yl)-1-(cyclopropylmethyl)-1H-indol-2-yl]-7-methoxy-1-methyl-1H-1,3-benzodiazole-5-carbonyl}-2-azabicyclo[2.2.1]heptan-7-amine], `COc1cc(C(=O)N2C[C@H]3CC[C@@H]2[C@@H]3N)cc2nc(-c3cc4cccc(C5CN(C(=O)Cc6cccnc6)C5)c4n3CC3CC3)n(C)c12` [Example 78, 1-[3-(2-{5-[(1R,4R,7R)-7-amino-2-azabicyclo[2.2.1]heptane-2-carbonyl]-7-methoxy-1-methyl-1H-1,3-benzodiazol-2-yl}-1-(cyclopropylmethyl)-1H-indol-7-yl)azetidin-1-yl]-2-(pyridin-3-yl)ethan-1-one] is 7.1-fold lower in IC50: 0.071 µM for the first, 0.01 µM for the second. The second is the more potent here.

Going from `COc1cc(C(=O)N2C[C@H]3CC[C@@H]2[C@@H]3N)cc2nc(-c3cc4cccc(-c5ccc6c(c5)C(O)(C(F)(F)F)C(=O)N6)c4n3CC3CC3)n(C)c12` (stereo partly drawn) [Example 198, 5-(2-(5-((1R,4R,7R)-7-amino-2-azabicyclo[2.2.1]heptane-2-carbonyl)-7-methoxy-1-methyl-1H-benzo[d]imidazol-2-yl)-1-(cyclopropylmethyl)-1H-indol-7-yl)-3-hydroxy-3-(trifluoromethyl)indolin-2-one] to `COc1cc(C(=O)N2C[C@H]3CC[C@@H]2[C@@H]3N)cc2nc(-c3cc4cccc(C5=CCN(C(C)=O)CC5)c4n3CC3CC3)n(C)c12` [Example 220, 1-(4-(2-(5-((1R,4R,7R)-7-amino-2-azabicyclo[2.2.1]heptane-2-carbonyl)-7-methoxy-1-methyl-1H-benzo[d]imidazol-2-yl)-1-(cyclopropylmethyl)-1H-indol-7-yl)-3,6-dihydropyridin-1(2H)-yl)ethan-1-one], the IC50 rises from 0.026 µM to 0.043 µM (1.7-fold). The first is the more potent here.

`COc1cc(C(=O)N2C[C@H]3CC[C@@H]2[C@@H]3N)cc2nc(-c3cc4cccc(-c5cn[nH]c5)c4n3CC3CC3C)n(C)c12` (stereo partly drawn) [Example 156, ((1R,4R,7R)-7-amino-2-azabicyclo[2.2.1]heptan-2-yl)(7-methoxy-1-methyl-2-(1-((2-methylcyclopropyl)meth-yl)-7-(1H-pyrazol-4-yl)-1H-indol-2-yl)-1H-benzo[d]imidazol-5-yl)methanone] and `COc1cc(C(=O)N2C[C@H]3CC[C@@H]2[C@@H]3N)cc2nc(-c3cc4cccc(C5CCCNC5)c4n3CC3CC3)n(C)c12` (stereo partly drawn) [Example 12, (1R,4R,7R)-2-{2-[1-(cyclopropylmethyl)-7-(piperidin-3-yl)-1H-indol-2-yl]-7-methoxy-1-methyl-1H-1,3-benzodiazole-5-carbonyl}-2-azabicyclo[2.2.1]heptan-7-amine] are within 1.5-fold of each other in IC50: 0.079 µM for the first, 0.073 µM for the second.

`COC(=O)N1CC(c2cccc3cc(-c4nc5cc(C(=O)N6C[C@H](N)C[C@@H](F)C6)cc(OC)c5n4Cc4cnn(C)c4)n(CC4CC4)c23)C1` [Example 211, methyl 3-(2-(5-((3R,5R)-3-amino-5-fluoropiperidine-1-carbonyl)-7-methoxy-1-((1-methyl-1H-pyraozl-4-yl)methyl)-1H-benzo[d]imidazol-2-yl)-1-(cyclopropylmethyl)-1H-indol-7-yl)azetidine-1-carboxylate] showed an IC50 of 0.026 µM.

Same assay, conditions: human PAD4, rapid-fire mass spectrum (RFMS) assay; 5 nM hPAD4, 250 μM BAEE; read-out: hPAD4 RFMS IC50

Compared with `CNC(=O)C1CC(c2cccc3cc(-c4nc5cc(C(=O)N6C[C@H]7CC[C@@H]6[C@@H]7N)cc(OC)c5n4C)n(CC4CC4)c23)C1` (single isomer, unassigned) [Example 43], `COc1cc(C(=O)N2C[C@H]3CC[C@@H]2[C@@H]3N)cc2nc(-c3cc4cccc(-c5ccccc5)c4n3CC3CC3)n(C)c12` [compound 186] is 15-fold higher in IC50: 0.02 µM for the first, 0.299 µM for the second. The first is the more potent here.

Compound `COc1cc(C(=O)N2C[C@H](N)C[C@@H](F)C2)cc2nc(-c3cc4cccc(C5CCN(C(C)=O)CC5)c4n3CC3CC3)n(Cc3cnn(C)c3)c12` [Example 189, 1-(4-(2-(5-((3R,5R)-3-amino-5-fluoropiperidine-1-carbonyl)-7-methoxy-1-((1-methyl-1H-pyrazol-4-yl)methyl)-1H-benzo[d]imidazol-2-yl)-1-(cyclopropylmethyl)-1H-indol-7-yl)piperidin-1-yl)ethan-1-one] has an IC50 of 0.018 µM.
